According to PubChem BioAssay AID1963448 (Molecular Pharmacology Branch, DTP, NCI, 2024):

Tested on: 616215-338-R-J1-PDC complex spheroid growth, % test/control
Experiment: Anticancer human tumor 616215-338-R-J1-PDC patient-derived colon adenocarcinoma cell line growth inhibition [Asc]
Conditions: for IC50: curve of first compound; for viability, T/C: stronger effect = lower value
Method in brief: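 Tumor cells were grown as complex spheroids with human endothelial cells (HUVEC) and human mesenchymal stem cells as stroma. Agents were tested alone and in combination, in half-log steps down from the clinical Cmax, or from 10 microM where Cmax was unknown.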

[1] = second compound 0.03 µM, first compound 0.0316 µM
[2] = second compound 0.03 µM, first compound 0.1 µM
[3] = second compound 0.03 µM, first compound 0.316 µM
[4] = second compound 0.03 µM, first compound 1 µM
[5] = second compound 0.03 µM, first compound 3.16 µM
[6] = second compound 0.03 µM, first compound 10 µM
[7] = second compound 0.0949 µM, first compound 0.0316 µM
[8] = second compound 0.0949 µM, first compound 0.1 µM
[9] = second compound 0.0949 µM, first compound 0.316 µM
[10] = second compound 0.0949 µM, first compound 1 µM
[11] = second compound 0.0949 µM, first compound 3.16 µM
[12] = second compound 0.0949 µM, first compound 10 µM
[13] = second compound 0.3 µM, first compound 0.0316 µM
[14] = second compound 0.3 µM, first compound 0.1 µM
[15] = second compound 0.3 µM, first compound 0.316 µM
[16] = second compound 0.3 µM, first compound 1 µM
[17] = second compound 0.3 µM, first compound 3.16 µM
[18] = second compound 0.3 µM, first compound 10 µM
[19] = second compound 0.949 µM, first compound 0.0316 µM
[20] = second compound 0.949 µM, first compound 0.1 µM
[21] = second compound 0.949 µM, first compound 0.316 µM
[22] = second compound 0.949 µM, first compound 1 µM
[23] = second compound 0.949 µM, first compound 3.16 µM
[24] = second compound 0.949 µM, first compound 10 µM
[25] = second compound 3 µM, first compound 0.0316 µM
[26] = second compound 3 µM, first compound 0.1 µM
[27] = second compound 3 µM, first compound 0.316 µM
[28] = second compound 3 µM, first compound 1 µM
[29] = second compound 3 µM, first compound 3.16 µM
[30] = second compound 3 µM, first compound 10 µM
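Further: spheroids exposed to agents for seven days before readout.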
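Wherever viability, T/C is given: 100% = DMSO vehicle control viability.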

C=CC(=O)N1CCN(c2nc(=O)n(-c3c(C)ccnc3C(C)C)c3nc(-c4c(O)cccc4F)c(F)cc23)C(C)C1 (configuration not stated) + CNC(C)C(=O)NC1CN(S(=O)(=O)c2cccc(S(=O)(=O)N3CCC4CCC(C(=O)NC(c5ccccc5)c5ccccc5)N4C(=O)C(NC(=O)C(C)NC)C3)c2)CCC2CCC(C(=O)NC(c3ccccc3)c3ccccc3)N2C1=O
IC50 (second compound 0.00316 µM): 4.24 µM | IC50 (second compound 0.01 µM): 2.68 µM | IC50 (second compound 0.0316 µM): 4.24 µM | IC50 (second compound 0.1 µM): 3.32 µM | IC50 (second compound 0.316 µM): 2.22 µM | IC50 (second compound 1 µM): 3.25 µM | viability, T/C (second compound 0.00316 µM, first compound 0.0316 µM): 109% | viability, T/C (second compound 0.00316 µM, first compound 0.1 µM): 99.2% | viability, T/C (second compound 0.00316 µM, first compound 0.316 µM): 88% | viability, T/C (second compound 0.00316 µM, first compound 1 µM): 78.2% | viability, T/C (second compound 0.00316 µM, first compound 3.16 µM): 58% | viability, T/C (second compound 0.00316 µM, first compound 10 µM): 29.4% | viability, T/C (second compound 0.01 µM, first compound 0.0316 µM): 110% | viability, T/C (second compound 0.01 µM, first compound 0.1 µM): 93.2% | viability, T/C (second compound 0.01 µM, first compound 0.316 µM): 95.5% | viability, T/C (second compound 0.01 µM, first compound 1 µM): 66.7% | viability, T/C (second compound 0.01 µM, first compound 3.16 µM): 47.3% | viability, T/C (second compound 0.01 µM, first compound 10 µM): 27.8% | viability, T/C (second compound 0.0316 µM, first compound 0.0316 µM): 106% | viability, T/C (second compound 0.0316 µM, first compound 0.1 µM): 101% | viability, T/C (second compound 0.0316 µM, first compound 0.316 µM): 96% | viability, T/C (second compound 0.0316 µM, first compound 1 µM): 76.9% | viability, T/C (second compound 0.0316 µM, first compound 3.16 µM): 58.1% | viability, T/C (second compound 0.0316 µM, first compound 10 µM): 29.2% | viability, T/C (second compound 0.1 µM, first compound 0.0316 µM): 95.8% | viability, T/C (second compound 0.1 µM, first compound 0.1 µM): 101% | viability, T/C (second compound 0.1 µM, first compound 0.316 µM): 81.5% | viability, T/C (second compound 0.1 µM, first compound 1 µM): 81.1% | viability, T/C (second compound 0.1 µM, first compound 3.16 µM): 48.6% | viability, T/C (second compound 0.1 µM, first compound 10 µM): 28.8% | viability, T/C (second compound 0.316 µM, first compound 0.0316 µM): 92.6% | viability, T/C (second compound 0.316 µM, first compound 0.1 µM): 105% | viability, T/C (second compound 0.316 µM, first compound 0.316 µM): 104% | viability, T/C (second compound 0.316 µM, first compound 1 µM): 61.8% | viability, T/C (second compound 0.316 µM, first compound 3.16 µM): 53% | viability, T/C (second compound 0.316 µM, first compound 10 µM): 36.4% | viability, T/C (second compound 1 µM, first compound 0.0316 µM): 104% | viability, T/C (second compound 1 µM, first compound 0.1 µM): 100% | viability, T/C (second compound 1 µM, first compound 0.316 µM): 100% | viability, T/C (second compound 1 µM, first compound 1 µM): 68.6% | viability, T/C (second compound 1 µM, first compound 3.16 µM): 54.6% | viability, T/C (second compound 1 µM, first compound 10 µM): 28.9%

C#Cc1c(F)ccc2cc(O)cc(-c3ncc4c(N5CC6CCC(C5)N6)nc(OCC56CCCN5CC(F)C6)nc4c3F)c12 (configuration not stated) + CCN1C(C(=O)NC23CCC(C(=O)O)(CC2)CC3)C(c2cccc(Cl)c2F)C2(C(=O)Nc3cc(Cl)ccc32)C12CCCCC2
IC50 (second compound 0.03 µM): > 10 µM | IC50 (second compound 0.0949 µM): > 10 µM | IC50 (second compound 0.3 µM): 1.71 µM | IC50 (second compound 0.949 µM): 1.63 µM | IC50 (second compound 3 µM): < 0.0316 µM | viability, T/C [1]: 91.1% | viability, T/C [2]: 98.6% | viability, T/C [3]: 93.5% | viability, T/C [4]: 94.3% | viability, T/C [5]: 84.4% | viability, T/C [6]: 67.5% | viability, T/C [7]: 84.9% | viability, T/C [8]: 85.3% | viability, T/C [9]: 91.4% | viability, T/C [10]: 82.5% | viability, T/C [11]: 80.3% | viability, T/C [12]: 68.1% | viability, T/C [13]: 56.4% | viability, T/C [14]: 57.1% | viability, T/C [15]: 61.6% | viability, T/C [16]: 54% | viability, T/C [17]: 44.7% | viability, T/C [18]: 38.4% | viability, T/C [19]: 63.6% | viability, T/C [20]: 66% | viability, T/C [21]: 60.5% | viability, T/C [22]: 51% | viability, T/C [23]: 46.5% | viability, T/C [24]: 30% | viability, T/C [25]: 36.6% | viability, T/C [26]: 42.4% | viability, T/C [27]: 36.1% | viability, T/C [28]: 32.4% | viability, T/C [29]: 20.1% | viability, T/C [30]: 17.4%

C=C(F)C(=O)N1CCN(c2nc(OCC3CCCN3C)nc3c2CCN(c2cccc4cccc(Cl)c24)C3)CC1CC#N (configuration not stated) + CCN1C(C(=O)NC23CCC(C(=O)O)(CC2)CC3)C(c2cccc(Cl)c2F)C2(C(=O)Nc3cc(Cl)ccc32)C12CCCCC2
IC50 (second compound 0.03 µM): 5.68 µM | IC50 (second compound 0.0949 µM): 4.92 µM | IC50 (second compound 0.3 µM): 3.72 µM | IC50 (second compound 0.949 µM): 3.83 µM | IC50 (second compound 3 µM): < 0.0316 µM | viability, T/C [1]: 106% | viability, T/C [2]: 103% | viability, T/C [3]: 109% | viability, T/C [4]: 106% | viability, T/C [5]: 101% | viability, T/C [6]: 0.87% | viability, T/C [7]: 106% | viability, T/C [8]: 96.7% | viability, T/C [9]: 99.3% | viability, T/C [10]: 93.4% | viability, T/C [11]: 82% | viability, T/C [12]: 0.4% | viability, T/C [13]: 69.9% | viability, T/C [14]: 67.9% | viability, T/C [15]: 66% | viability, T/C [16]: 65.7% | viability, T/C [17]: 58.2% | viability, T/C [18]: 0.52% | viability, T/C [19]: 62.2% | viability, T/C [20]: 65.5% | viability, T/C [21]: 67.6% | viability, T/C [22]: 63.8% | viability, T/C [23]: 59.9% | viability, T/C [24]: 0.26% | viability, T/C [25]: 48.9% | viability, T/C [26]: 48.8% | viability, T/C [27]: 46.2% | viability, T/C [28]: 45.6% | viability, T/C [29]: 46.2% | viability, T/C [30]: 0.36%
